Data set [1] deals with T1, human recombinant 11β-HSD1 (Homo sapiens, UniProt P28845).
T1 construct: made in house; host or cells: Pichia pastoris (microsomal fraction)
Put plainly: in vitro inhibition of human recombinant 11β-HSD1 (Pichia pastoris microsomes, [3H]cortisone to [3H]cortisol). Format: biochemical. The settings on record: recombinant human 11β-HSD1 microsomes, 500 nM cortisone mixture, NADPH, 90 min at 37° C. On the procedure: The in vitro inhibition of human recombinant 11β-HSD1 is determined as follows:
Recombinant human 11β-HSD1 is expressed in yeast Pichia pastoris. Cultures are grown at 30° C. for 3 days in the presence of methanol to induce enzyme expression. The microsomal fraction overexpressing 11β-HSD1 is prepared from the cell homogenate and used as the enzyme source for primary screening. A test compound at the desired concentration is preincubated for 10 min at RT with 3 μg of the microsomal protein in 50 mM sodium phosphate, pH 7.5, in a total volume of 80 μL. The enzyme reaction is initiated by adding 20 μL of a mixture containing 5 mM NADPH, 500 nM cortisone, and 80,000 dpm of [^3H]cortisone in the same buffer and is terminated by ethyl acetate after incubation for 90 min at 37° C. The production of [^3H]cortisol is quantitated upon separation from [^3H]cortisone by a C18 column on HPLC equipped with a radioactivity detector. Glycerrhetinic acid, a known inhibitor of 11β-HSD1, is used as a standard.

The target of a further data set is T2, human 11β-HSD2 (Homo sapiens, UniProt P80365).
T2 construct: using lysates of SW-620 cells as the enzyme source; host or cells: SW-620 human colon carcinoma cells (lysate)
T2 sequence (P80365 1-405): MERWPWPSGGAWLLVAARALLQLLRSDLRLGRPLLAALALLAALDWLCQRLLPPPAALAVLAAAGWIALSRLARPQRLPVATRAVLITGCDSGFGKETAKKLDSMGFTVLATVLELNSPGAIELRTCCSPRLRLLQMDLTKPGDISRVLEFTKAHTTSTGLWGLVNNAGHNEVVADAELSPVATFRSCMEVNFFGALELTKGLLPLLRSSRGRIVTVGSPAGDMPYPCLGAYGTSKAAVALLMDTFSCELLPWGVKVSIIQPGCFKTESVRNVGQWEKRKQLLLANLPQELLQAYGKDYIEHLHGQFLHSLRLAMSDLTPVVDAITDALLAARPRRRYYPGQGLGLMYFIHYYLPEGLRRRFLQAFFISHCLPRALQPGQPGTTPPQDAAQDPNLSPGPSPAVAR
Briefly: in vitro inhibition of human 11β-HSD2 (SW-620 cell lysates, [3H]cortisol to [3H]cortisone). It counts as biochemical. As for the experimental part: The in vitro inhibition of human 11β-HSD2 is determined as follows:
The SW-620 human colon carcinoma cell line is obtained from the American Type Culture Collection (ATCC). Cells are plated at a density of 8-10×10^4 cells/cm^2 in DMEM/F12 containing 5% BCS, 100 U/mL penicillin, 100 μg/mL streptomycin and […] amphotericin B. Cultures are grown to 80-90% confluence in a humidified, atmosphere of 5% CO2 at 37° C. The medium is changed to serum-free, phenol red-free DMEM/F12 at 24 h before harvesting the cells.
After 24 h in serum-free medium, cultured SW-620 cells are rinsed and scraped in Kreb's-Ringer buffer, pH 7.4, containing 1 mM EDTA, 2 μg/mL aprotinin, 10 μM leupeptin and 1 μM pepstatin. After sonication (30 seconds) and low speed centrifugation (2,000 rpm, 5 min) to remove cellular debris, the supernatant is collected and used to determine enzyme activity and protein concentration (BCA, Pierce, Rockford, Ill.).
Dehydrogenase activity is quantified by measuring the conversion of [^3H]cortisol to [^3H]cortisone using lysates of SW-620 cells as the enzyme source. The assay is performed in tubes containing Kreb's-Ringer buffer pH 7.4, with 0.20 mM NAD and 200,000 dpm of [^3H]cortisol and a test compound in a total volume of 1 mL. The tubes are preincubated for 10 min at 37° C. before adding 200 μg of cell lysates to start the reaction. After incubation for 1 h at 37° C. in a shaking water bath, the mixture is extracted with 2 volumes of ethyl acetate and centrifuged for 10 min at 2,000 rpm. The organic layer is collected, dried under vacuum and resuspended in methanol. The dissolved residues are quantitatively transferred to thin layer plates and developed in chloroform-methanol (90:10). Unlabeled cortisol and cortisone were used as reference markers. The TLC plates are scanned on a Bioscan radioimaging detector (Bioscan, Washington, D.C.), and the fractional conversion of cortisol to cortisone is calculated. Enzyme activity is expressed as pmoles of product formed per mg protein per hour. Carbenoxolone and glycyrrhetinic acid are used as standards.

The target of a further data set is T3, cellular 11β-HSD1 (Rattus norvegicus, UniProt P16232).
T3 construct: Enzyme activity is measured in the medium of primary cultures of rat hepatocytes 48 h after plating the cells; endogenous in cells; host or cells: primary hepatocytes of male Sprague-Dawley rats
T3 sequence (P16232 whole entry): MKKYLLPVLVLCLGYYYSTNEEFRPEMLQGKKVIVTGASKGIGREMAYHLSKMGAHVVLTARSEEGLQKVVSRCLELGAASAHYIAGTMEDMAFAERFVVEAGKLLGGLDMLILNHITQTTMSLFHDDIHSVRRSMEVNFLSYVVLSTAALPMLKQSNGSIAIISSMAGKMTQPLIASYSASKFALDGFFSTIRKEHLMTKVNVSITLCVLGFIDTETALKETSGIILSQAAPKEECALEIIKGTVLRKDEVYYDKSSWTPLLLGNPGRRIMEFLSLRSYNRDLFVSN
Put plainly: inhibition of cellular 11β-HSD1 activity in primary rat hepatocytes. Format: cell-based. The settings on record: 2 h incubation. As for the experimental part:
The inhibition of cellular 11β-HSD1 activity in primary rat hepatocytes is determined as follows:
Male Sprague-Dawley rats weighing 180-200 g are anesthetized with sodium pentobarbital (65 mg/kg). The liver is perfused in situ with calcium-free Earl's Balanced Salt Solution (EBSS) followed by EBSS containing 100-150 U/mL of collagenase, 1.8 mM CaCl2 and 10 mM HEPES, pH 7.4. The perfused liver is removed and aseptically placed in warm William's Medium E containing 10% BCS. After decapsulation, the organ is transferred to fresh medium and gently shaken to facilitate tissue dissociation and cell release. Hepatocytes are separated from nonparenchymal and dead cells by repeated low speed centrifugation. Cell viability is determined by trypan blue exclusion.
Hepatocytes are plated on collagen coated dishes at a density of 1×10^5 cells/cm^2 in William's medium E containing 10% BCS, 100 U/mL penicillin, 100 μg/mL streptomycin, 0.25 μg/mL amphotericin B, 2 mM L-glutamine, 10 mM HEPES, 100 nM insulin and 1 nM dexamethasone. After 1 h the medium is changed to serum-free William's medium E supplemented as described above. Thereafter, the medium is replaced every 24 h. The cultures are maintained in a humidified atmosphere of 5% CO2 at 37° C.
Enzyme activity is measured in the medium of primary cultures of rat hepatocytes 48 h after plating the cells. The medium is aspirated and replaced with serum-free William's medium E containing 2 nM [^3H]11-dehydrocorticosterone and a test compound and is incubated for 2 h. An aliquot of culture medium is removed at the end of the incubation and the mixture is extracted with 2 volumes of ethyl acetate, dried under vacuum and resuspended in methanol. The dissolved residues are quantitatively transferred to thin layer plates and developed in chloroform-methanol (90:10). The TLC plates are scanned on a Bioscan imaging detector and the fractional conversion of 11-dehydrocorticosterone to corticosterone is calculated. The cell layer is rinsed with cold phosphate-buffered saline and dissolved in 0.1 N NaOH/5% SDS for the determination of cellular protein (BCA, Pierce, Rockford, Ill.). Enzyme activity is expressed as pmoles of product formed per mg protein per hour.

For data set [2], the system named is corticosterone production in adrenalectomized (ADX) mice. Briefly: inhibition of corticosterone production in adrenalectomized (ADX) mice. It counts as in vivo. The settings on record: Mus musculus, po; ADX CD1 mice, orally 25 mg/kg each at 2 and 4 h before sacrifice; liver corticosterone. As for the experimental part: Inhibition of corticosterone production in adrenalectomized (ADX) mice is determined as follows:
Bilateral adrenalectomy is performed in male mice of the CD1 strain (6 to 8 weeks of age, 25-30 g body weight) through a lumbar laparotomy. After 10 days the animals are fasted for 24 h. Compounds are administered orally at 25 mg/kg each at 2 and 4 h before sacrifice. A second group of animals receives carbenoxolone at the same dose, and a third group receives the vehicle (cornstarch). Homogenized liver samples are used to measure corticosterone concentration which is determined by radioimmunoassay and is expressed as pg of corticosterone per mg of liver protein.

T1 sequence (P28845 whole entry): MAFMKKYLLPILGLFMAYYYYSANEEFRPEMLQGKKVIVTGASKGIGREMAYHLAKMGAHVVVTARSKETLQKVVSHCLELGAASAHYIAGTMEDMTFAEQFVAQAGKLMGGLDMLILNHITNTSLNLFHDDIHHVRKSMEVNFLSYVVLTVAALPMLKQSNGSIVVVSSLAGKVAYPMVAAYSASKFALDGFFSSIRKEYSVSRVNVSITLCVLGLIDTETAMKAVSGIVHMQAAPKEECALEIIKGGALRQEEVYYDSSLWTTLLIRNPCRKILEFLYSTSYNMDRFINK

With `COC(=O)Nc1ccc(C(=O)N2CC[C@H]3CCCC[C@H]3C2)c(OC)c1` [Example 48-37], in data set [1], the IC50 (commonly the midpoint of a concentration-inhibition curve) was found to be 770 nM. In addition, 10 µM produced 29% inhibition at human 11β-HSD2. Besides, the inhibition (as a rule, the share of the control response that was lost under treatment) at 1 µM at cellular 11β-HSD1 came to 75%. Further, the change in vivo at 25 mg/kg in data set [2] was -69%.
Take `CN(CC1CCCCC1)C(=O)c1ccc(NC(=O)c2ccc(F)cc2)cc1Cl` [Example 3-11]: in data set [1], the IC50 worked out at 1000 nM. The compound further gave an inhibition at 10 µM on human 11β-HSD2 of 26%. Further, on cellular 11β-HSD1, testing at 1 µM gave an inhibition of 80%. Besides, the change in vivo at 25 mg/kg in data set [2] was -69%.
As to `O=C(Nc1cccc(-c2ccc(C(=O)N3CCC[C@H]4CCCC[C@@H]43)o2)c1)c1ccccc1` (racemic) [Example 34, N-{3-[5-((4aS*,8aR*)-Octahydro-1(2H)-quinoline-1-carbonyl)-furan-2-yl]-phenyl}-benzamide], the melting point – broadly, the temperature of the solid-liquid transition – is 62 to 64 °C.
Consider `O=C(NCc1ccc(F)cc1)N1CCc2cc(C(=O)N3CCC[C@H]4CCCC[C@H]43)ccc21` [Example 33-21], for which, in data set [1], the IC50 was 262 nM. On human 11β-HSD2, this compound displayed an inhibition at 10 µM of 45%. The same compound displayed an inhibition at 1 µM on cellular 11β-HSD1 of 84%. Further, the change in vivo at 25 mg/kg in data set [2] is -71%.
Take `Cc1ccc(NC(=O)c2ccc(C(=O)N3CCC[C@H]4CCCC[C@@H]43)cc2)cc1` (racemic) [Example 22, 4-[(4aS*,8aR*)-Octahydro-1(2H)-quinoline-1-carbonyl]-N-p-tolylbenzamide]: the melting point lay within 199 to 203 °C.
In the case of `Cn1c(C(=O)N2CCC[C@@H]3CCCC[C@H]32)cc2ccccc21` (relative stereo) [Example 38, (1-Methyl-1H-indol-2-yl)-(4aS*,8aR*)-octahydro-1(2H)-quinolin-1-yl-methanone], the IC50 in data set [1] was found to be 180 nM. At human 11β-HSD2, this compound came in with an inhibition at 10 µM of 10%. The same compound came in with an inhibition at 1 µM on cellular 11β-HSD1 of 49%. In data set [2], the change in vivo at 25 mg/kg was -62%.
`CC1(C)CC[C@H]2[C@@H](CCCN2C(=O)c2ccc(NC(=O)c3ccc(Cl)cc3Cl)cc2)C1` (racemic) [Example 44, 2,4-Dichloro-N-[4-((4aS*,8aS*)-6,6-dimethyl-octahydro-1(2H)-quinoline-1-carbonyl)-phenyl]-benzamide] displayed a melting point of 220 to 221 °C.
On the same count and under the same terms, the result for `COc1ccc(C(=O)Nc2ccc(C(=O)N3CCC[C@H]4CCCC[C@@H]43)c3ccccc23)cc1OC` (racemic) [Example 27, 3,4-Dimethoxy-N-{4-[(4aS*,8aR*)-octahydro-1(2H)-quinoline-1-carbonyl]-naphthalen-1-yl}-benzamide] reads 251 to 260 °C.
Regarding `CC1=C(C(=O)N(C)CC23CC4CC(CC(C4)C2)C3)Cc2ccccc21` [Example 8-6], the IC50 in data set [1] stood at 6.5 nM. At human 11β-HSD2, the inhibition at 10 µM was determined as 11%. At cellular 11β-HSD1, this compound showed an inhibition at 1 µM of 54%. In addition, the change in vivo at 25 mg/kg in data set [2] is -57%.
On to `COc1cccc(NC(=O)Nc2ccc(C(=O)N3CCC[C@H]4CCCC[C@H]43)c(OC)c2)c1` [Example 13-4], for which the IC50 in data set [1] came to 42 nM. The compound also gave an inhibition at 10 µM at human 11β-HSD2 of 44%. The inhibition at 1 µM against cellular 11β-HSD1 worked out at 53%. For the same compound, in data set [2], the change in vivo at 25 mg/kg was -70%.
On to `O=C(Nc1ccc(C(=O)N2CCC[C@H]3CCCC[C@@H]32)cn1)c1ccc(F)cc1` (racemic) [Example 26, 4-Fluoro-N-{5-[(4aS*,8aR*)-octahydro-1(2H)-quinoline-1-carbonyl]-pyridin-2-yl}-benzamide], for which the melting point fell in the range of 144 to 145 °C.
Same read-out and setting: the result for `CN(C(=O)c1ccc(NC(=O)c2ccc(Cl)cc2Cl)cc1)C1CC2CCC1C2` (centres unmarked) [Example 8-9] reads 85 to 100 °C; that for `CN(CC1CCCCC1)C(=O)c1ccc(NC(=O)c2ccc(F)cc2)cc1` [Example 1, N-Cyclohexylmethyl-4-fluorobenzoylamino-N-methylbenzamide], 158 to 160 °C; that for `CC1=C(C(=O)N2CCC[C@@H]3CCCC[C@H]32)Cc2ccccc21` (racemic) [Example 36, (3-Methyl-H-inden-2-yl)-(4aS*,8aR*)-octahydro-1(2H)-quinolin-1-yl-methanone], 98 to 100 °C.
On the same count and under the same terms, under `C[C@H]1CCCC[C@@H]1N(C)C(=O)c1ccc(NC(=O)c2ccc(Cl)cc2Cl)cc1` [Example 8-8] stands 80 to 90 °C.
As to `O=C(Nc1ccc(C(=O)N2CCC[C@H]3CC(O)CC[C@@H]32)cc1)c1ccc(Cl)cc1Cl` (relative stereo) [Example 41, 2,4-Dichloro-N-[4-((4aS*,6S*,8aS*)-6-hydroxy-octahydro-1(2H)-quinoline-1-carbonyl)-phenyl]-benzamide], the melting point lay in the range of 183 to 184 °C.
For `O=C(Nc1ccc(C(=O)N2CCC[C@H]3CCCC[C@@H]32)cn1)c1ccc(Cl)cc1Cl` (racemic) [Example 25, 2,4-Dichloro-N-{5-[(4aS*,8aR*)-octahydro-1(2H)-quinoline-1-carbonyl]-pyridin-2-yl}-benzamide], the melting point lay in the range of 202 to 203 °C.

Values taken from patent US20060205772A1, “Amide derivatives and their use as inhibitors of 11-beta-hydroxysteroid dehydrogenase type I” (priority 2003, published 2006).
